A short description of this data set: physchem. The method in brief: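 3 mg of peptide treated with 100 μL portions of 200 mM phosphate buffer pH 7.4, sonicating/vortexing up to 1 min, with further buffer added until fully dissolved. Solubility then quantified by HPLC.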
The mark [1] stands for this setting: pH 7.4, aqueous buffer, pH 7.4 Phosphate Buffer - Solubility, 200 mM Phosphate buffer pH 7.4.
The mark [2] stands for this setting: pH 7.4, solubility in phosphate buffer at pH 7.4, 200 mM phosphate buffer pH 7.4.

For 8 compounds, solubility results are on record in US20230143604A1, “QW DOSING OF GIP RECEPTOR AGONIST PEPTIDE COMPOUNDS AND USES THEREOF” (TAKEDA PHARMACEUTICAL COMPANY LIMITED, priority 2020, published 2023).

Starred links: 1 amine or outer side, 2 acyl side, 3 side chain; linkers in the order of their positions; H or OH if unused. Positions of bridges follow the written chain, without caps; N, C: chain ends. Non-standard residues stand in square brackets, D forms with d. Residues, ends and D or L forms follow the SMILES beside them. Groups on a side chain read outwards from the residue. Chains are numbered I, II in the order given. *: point of attachment. C18 diacid = O=C(O)CCCCCCCCCCCCCCCCC(=O)*; C17 diacid = O=C(O)CCCCCCCCCCCCCCCC(=O)*; γGlu = O=C(O)[C@H](CCC(=O)[*:2])N[*:1]; NMeY = CN[C@@H](Cc1ccc(O)cc1)C(=O)O; AEEA = NCCOCCOCC(=O)O; Aib = CC(C)(N)C(=O)O

In the case of `CC[C@H](C)[C@H](NC(=O)[C@H](Cc1ccccc1)NC(=O)[C@@H](NC(=O)CNC(=O)[C@H](CCC(=O)O)NC(=O)C(C)(C)NC(=O)[C@H](Cc1ccc(O)cc1)NC)[C@@H](C)O)C(=O)N[C@@H](CO)C(=O)N[C@@H](CC(=O)O)C(=O)N[C@@H](Cc1ccc(O)cc1)C(=O)N[C@@H](CO)C(=O)N[C@H](C(=O)NC(C)(C)C(=O)N[C@@H](CC(C)C)C(=O)N[C@@H](CC(=O)O)C(=O)N[C@@H](CCCNC(=N)N)C(=O)NC(C)(C)C(=O)N[C@@H](C)C(=O)N[C@@H](CCC(N)=O)C(=O)NC(C)(C)C(=O)N[C@@H](CCCCNC(=O)COCCOCCNC(=O)COCCOCCNC(=O)CC[C@H](NC(=O)CC[C@H](NC(=O)CCCCCCCCCCCCCCCCC(=O)O)C(=O)O)C(=O)O)C(=O)N[C@@H](Cc1ccccc1)C(=O)N[C@H](C(=O)N[C@@H](CC(N)=O)C(=O)N[C@@H](Cc1c[nH]c2ccccc12)C(=O)N[C@@H](CC(C)C)C(=O)N[C@@H](CC(C)C)C(=O)N[C@@H](C)C(=O)N[C@@H](CCC(N)=O)C(=O)N[C@@H](CCCCN)C(=O)NCC(=O)O)C(C)C)[C@@H](C)CC` [Compound 66] (H-[NMeY][Aib]EGTFISDYSI[Aib]LDR[Aib]AQ[Aib]K([AEEA-AEEA-γGlu-γGlu-C18 diacid])FVNWLLAQKG-OH), the solubility is not below 15 mg/mL (pH 7.4) and not below 30 mg/mL (pH 7.4, aqueous buffer).

In the case of `CC[C@H](C)[C@H](NC(=O)[C@H](CO)NC(=O)[C@H](Cc1ccc(O)cc1)NC(=O)[C@H](CC(=O)O)NC(=O)[C@H](CO)NC(=O)[C@@H](NC(=O)[C@H](Cc1ccccc1)NC(=O)[C@@H](NC(=O)CNC(=O)[C@H](CCC(=O)O)NC(=O)C(C)(C)NC(=O)[C@H](Cc1ccc(O)cc1)NC)[C@@H](C)O)[C@@H](C)CC)C(=O)N[C@@H](C)C(=O)N[C@@H](CCCCNC(=O)CNC(=O)CNC(=O)CNC(=O)CNC(=O)CC[C@H](NC(=O)CCCCCCCCCCCCCCCCC(=O)O)C(=O)O)C(=O)N[C@@H](CC(=O)O)C(=O)N[C@@H](CCCNC(=N)N)C(=O)NC(C)(C)C(=O)N[C@@H](C)C(=O)N[C@@H](CCC(N)=O)C(=O)NC(C)(C)C(=O)N[C@@H](CC(=O)O)C(=O)N[C@@H](Cc1ccccc1)C(=O)N[C@H](C(=O)N[C@@H](CC(N)=O)C(=O)N[C@@H](Cc1c[nH]c2ccccc12)C(=O)N[C@@H](CC(C)C)C(=O)N[C@@H](CC(C)C)C(=O)N[C@@H](C)C(=O)N[C@@H](CCC(N)=O)C(=O)N[C@@H](CCCCN)C(=O)NCC(=O)O)C(C)C` [Compound 80] (H-[NMeY][Aib]EGTFISDYSIAK([Gly-Gly-Gly-Gly-γGlu-C18 diacid])DR[Aib]AQ[Aib]DFVNWLLAQKG-OH), the solubility by setting is: (pH 7.4) not below 15 mg/mL; (pH 7.4, aqueous buffer) not below 30 mg/mL.

As for “I: H-[NMeY][Aib]EGTFISDYSIALDR[Aib]AQ[Aib]KFVNWLLAQSPSSGAPPPS-OH / II: {C18 diacid-γGlu}-PAPAPGG (amide I:21-II:C) [Compound 104]”, the solubility reads like this: under setting [1], not below 60 mg/mL; under setting [2], not below 15 mg/mL.

Consider `CC[C@H](C)[C@H](NC(=O)[C@H](CO)NC(=O)[C@H](Cc1ccc(O)cc1)NC(=O)[C@H](CC(=O)O)NC(=O)[C@H](CO)NC(=O)[C@@H](NC(=O)[C@H](Cc1ccccc1)NC(=O)[C@@H](NC(=O)CNC(=O)[C@H](CCC(=O)O)NC(=O)C(C)(C)NC(=O)[C@H](Cc1ccc(O)cc1)NC)[C@@H](C)O)[C@@H](C)CC)C(=O)N[C@@H](C)C(=O)N[C@@H](CCCCNC(=O)COCCOCCNC(=O)COCCOCCNC(=O)CC[C@H](NC(=O)CCCCCCCCCCCCCCCC(=O)O)C(=O)O)C(=O)N[C@@H](CC(=O)O)C(=O)N[C@@H](CCCNC(=N)N)C(=O)NC(C)(C)C(=O)N[C@@H](C)C(=O)N[C@@H](CCC(N)=O)C(=O)NC(C)(C)C(=O)N[C@@H](CC(N)=O)C(=O)N[C@@H](Cc1ccccc1)C(=O)N[C@H](C(=O)N[C@@H](CC(N)=O)C(=O)N[C@@H](Cc1c[nH]c2ccccc12)C(=O)N[C@@H](CC(C)C)C(=O)N[C@@H](CC(C)C)C(=O)N[C@@H](C)C(=O)N[C@@H](CCC(N)=O)C(=O)N[C@@H](CCCCN)C(=O)O)C(C)C` [Compound 255] (H-[NMeY][Aib]EGTFISDYSIAK([AEEA-AEEA-γGlu-C17 diacid])DR[Aib]AQ[Aib]NFVNWLLAQK-OH; C-terminus assumed), for which the solubility (pH 7.4, aqueous buffer) is not below 10 mg/mL.

In turn, `CC[C@H](C)[C@H](NC(=O)[C@H](Cc1ccccc1)NC(=O)[C@@H](NC(=O)CNC(=O)[C@H](CCC(=O)O)NC(=O)C(C)(C)NC(=O)[C@H](Cc1ccc(O)cc1)NC)[C@@H](C)O)C(=O)N[C@@H](CO)C(=O)N[C@@H](CC(=O)O)C(=O)N[C@@H](Cc1ccc(O)cc1)C(=O)N[C@@H](CO)C(=O)N[C@H](C(=O)NC(C)(C)C(=O)N[C@@H](CC(C)C)C(=O)N[C@@H](CC(=O)O)C(=O)N[C@@H](CCCNC(=N)N)C(=O)NC(C)(C)C(=O)N[C@@H](C)C(=O)N[C@@H](CCC(N)=O)C(=O)NC(C)(C)C(=O)N[C@@H](CCCCNC(=O)COCCOCCNC(=O)COCCOCCNC(=O)CC[C@H](NC(=O)CC[C@H](NC(=O)CCCCCCCCCCCCCCCC(=O)O)C(=O)O)C(=O)O)C(=O)N[C@@H](Cc1ccccc1)C(=O)N[C@H](C(=O)N[C@@H](CC(N)=O)C(=O)N[C@@H](Cc1c[nH]c2ccccc12)C(=O)N[C@@H](CC(C)C)C(=O)N[C@@H](CC(C)C)C(=O)N[C@@H](C)C(=O)N[C@@H](CCC(N)=O)C(=O)N[C@@H](CCCNC(=N)N)C(=O)NCC(=O)O)C(C)C)[C@@H](C)CC` [Compound 127] (H-[NMeY][Aib]EGTFISDYSI[Aib]LDR[Aib]AQ[Aib]K([AEEA-AEEA-γGlu-γGlu-C17 diacid])FVNWLLAQRG-OH) displayed a solubility (pH 7.4) not below 15 mg/mL and a solubility (pH 7.4, aqueous buffer) not below 30 mg/mL.

With `CC[C@H](C)[C@H](NC(=O)[C@H](CO)NC(=O)[C@H](Cc1ccc(O)cc1)NC(=O)[C@H](CC(=O)O)NC(=O)[C@H](CO)NC(=O)[C@@H](NC(=O)[C@H](Cc1ccccc1)NC(=O)[C@@H](NC(=O)CNC(=O)[C@H](CCC(=O)O)NC(=O)C(C)(C)NC(=O)[C@@H](N)Cc1ccc(O)cc1)[C@@H](C)O)[C@@H](C)CC)C(=O)N[C@@H](C)C(=O)N[C@@H](CC(C)C)C(=O)N[C@@H](CC(=O)O)C(=O)N[C@@H](CCCCN)C(=O)N[C@@H](C)C(=O)N[C@@H](C)C(=O)N[C@@H](CCC(N)=O)C(=O)NC(C)(C)C(=O)N[C@@H](CCCCNC(=O)COCCOCCNC(=O)COCCOCCNC(=O)CC[C@H](NC(=O)CC[C@H](NC(=O)CCCCCCCCCCCCCCCCC(=O)O)C(=O)O)C(=O)O)C(=O)N[C@@H](Cc1ccccc1)C(=O)N[C@H](C(=O)N[C@@H](CCC(=O)O)C(=O)N[C@@H](Cc1c[nH]c2ccccc12)C(=O)N[C@@H](CC(C)C)C(=O)N[C@@H](CC(C)C)C(=O)N[C@@H](C)C(=O)N[C@@H](CCC(N)=O)C(=O)N[C@@H](CCCNC(=N)N)C(=O)NCC(=O)O)C(C)C` [Compound 154] (H-Y[Aib]EGTFISDYSIALDKAAQ[Aib]K([AEEA-AEEA-γGlu-γGlu-C18 diacid])FVEWLLAQRG-OH), the solubility is not below 15 mg/mL (pH 7.4) and not below 30 mg/mL (pH 7.4, aqueous buffer).

As to `CC[C@H](C)[C@H](NC(=O)[C@H](CO)NC(=O)[C@H](Cc1ccc(O)cc1)NC(=O)[C@H](CC(=O)O)NC(=O)[C@H](CO)NC(=O)[C@@H](NC(=O)[C@H](Cc1ccccc1)NC(=O)[C@@H](NC(=O)CNC(=O)[C@H](CCC(=O)O)NC(=O)C(C)(C)NC(=O)[C@H](Cc1ccc(O)cc1)NC)[C@@H](C)O)[C@@H](C)CC)C(=O)N[C@@H](C)C(=O)N[C@@H](CCCCNC(=O)COCCOCCNC(=O)COCCOCCNC(=O)CC[C@H](NC(=O)CCCCCCCCCCCCCCCCC(=O)O)C(=O)O)C(=O)N[C@@H](CC(=O)O)C(=O)N[C@@H](CCCNC(=N)N)C(=O)N[C@H](C(=O)N[C@@H](Cc1c[nH]cn1)C(=O)N[C@@H](CCC(N)=O)C(=O)N[C@@H](CCC(N)=O)C(=O)N[C@@H](CC(N)=O)C(=O)N[C@@H](Cc1ccccc1)C(=O)N[C@H](C(=O)N[C@@H](CC(N)=O)C(=O)N[C@@H](Cc1c[nH]c2ccccc12)C(=O)N[C@@H](CC(C)C)C(=O)N[C@@H](CC(C)C)C(=O)N[C@@H](C)C(=O)N[C@@H](CCC(N)=O)C(=O)N[C@@H](CCCCN)C(=O)O)C(C)C)[C@@H](C)CC` [Compound 245] (H-[NMeY][Aib]EGTFISDYSIAK([AEEA-AEEA-γGlu-C18 diacid])DRIHQQNFVNWLLAQK-OH; C-terminus assumed), the solubility (pH 7.4, aqueous buffer) is not below 7.5 mg/mL.

As to `CC[C@H](C)[C@H](NC(=O)[C@H](CO)NC(=O)[C@H](Cc1ccc(O)cc1)NC(=O)[C@H](CC(=O)O)NC(=O)[C@H](CO)NC(=O)[C@@H](NC(=O)[C@H](Cc1ccccc1)NC(=O)[C@@H](NC(=O)CNC(=O)[C@H](CCC(=O)O)NC(=O)C(C)(C)NC(=O)[C@H](Cc1ccc(O)cc1)NC)[C@@H](C)O)[C@@H](C)CC)C(=O)N[C@@H](C)C(=O)N[C@@H](CC(C)C)C(=O)N[C@@H](CC(=O)O)C(=O)N[C@@H](CCCNC(=N)N)C(=O)NC(C)(C)C(=O)N[C@@H](C)C(=O)N[C@@H](CCC(N)=O)C(=O)NC(C)(C)C(=O)N[C@@H](CC(=O)O)C(=O)N[C@@H](Cc1ccccc1)C(=O)N[C@H](C(=O)N[C@@H](CC(N)=O)C(=O)N[C@@H](Cc1c[nH]c2ccccc12)C(=O)N[C@@H](CC(C)C)C(=O)N[C@@H](CC(C)C)C(=O)N[C@@H](C)C(=O)N[C@@H](CCCCNC(=O)COCCOCCNC(=O)COCCOCCNC(=O)CC[C@H](NC(=O)CC[C@H](NC(=O)CCCCCCCCCCCCCCCCC(=O)O)C(=O)O)C(=O)O)C(=O)N[C@@H](CCCNC(=N)N)C(=O)N1CCC[C@H]1C(=O)N[C@@H](CO)C(=O)N[C@@H](CO)C(=O)NCC(=O)N[C@@H](C)C(=O)N1CCC[C@H]1C(=O)N1CCC[C@H]1C(=O)N1CCC[C@H]1C(=O)N[C@@H](CO)C(N)=O)C(C)C` [Compound 58] (H-[NMeY][Aib]EGTFISDYSIALDR[Aib]AQ[Aib]DFVNWLLAK([AEEA-AEEA-γGlu-γGlu-C18 diacid])RPSSGAPPPS-NH2), the solubility was not below 30 mg/mL under setting [1] and not below 15 mg/mL under setting [2].

As a reminder, the solubility is the dissolved amount per volume that the medium holds. A high value points to much dissolved substance.
